Here are results for three molecules from BindingDB's records for doi:10.1006/abio.2001.5466 (Kosan Biosciences, 2002).

Several values for one entry are separate records, joined by “and”; a condition that tells them apart may be missing. Identical values can stand only once.

In this assay the target is T1, Promotilin (Homo sapiens, UniProt P12872).
T1 sequence (P12872 whole entry): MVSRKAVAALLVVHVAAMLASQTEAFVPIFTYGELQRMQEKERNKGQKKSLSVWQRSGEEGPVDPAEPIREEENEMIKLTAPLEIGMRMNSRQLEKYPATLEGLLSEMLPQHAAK
The Ki is a dissociation constant, usually derived from enzyme kinetics or from competition with a known ligand. A low value points to a stronger hold on the target. The molecule `CC[C@H]1OC(=O)[C@H](C)[C@@H](O[C@H]2C[C@@](C)(OC)[C@@H](O)[C@H](C)O2)[C@H](C)[C@@H](O[C@H]2O[C@@H](C)C[C@@H](N(C)C)[C@@H]2O)[C@](C)(O)C[C@@H](C)C(=O)[C@H](C)[C@@H](O)[C@]1(C)O` [(3R,4S,5S,6R,7R,9R,11R,12R,13S,14R)-6-{[(2R,3S,4R,6S)-4-(dimethylamino)-3-hydroxy-6-methyloxan-2-yl]oxy}-14-ethyl-7,12,13-trihydroxy-4-{[(2R,4R,5S,6S)-5-hydroxy-4-methoxy-4,6-dimethyloxan-2-yl]oxy}-3,5,7,9,11,13-hexamethyl-1-oxacyclotetradecane-2,10-dione] displayed a Ki of 1.29 µM. This lies in the single-digit micromolar range.

`CC[C@H](C)[C@H](NC(=O)[C@@H]1CCCN1C(=O)[C@@H](NC(=O)[C@@H](N)Cc1ccccc1)C(C)C)C(=O)N[C@@H](Cc1ccccc1)C(=O)N[C@H](C(=O)N[C@@H](Cc1ccc(O)cc1)C(=O)NCC(=O)N[C@@H](CCC(=O)O)C(=O)N[C@@H](CC(C)C)C(=O)N[C@@H](CCC(N)=O)C(=O)N[C@@H](CCCNC(=N)N)C(=O)N[C@@H](CCSC)C(=O)N[C@@H](CCC(N)=O)C(=O)N[C@@H](CCC(=O)O)C(=O)N[C@@H](CCCCN)C(=O)N[C@@H](CCC(=O)O)C(=O)N[C@@H](CCCNC(=N)N)C(=O)N[C@@H](CC(N)=O)C(=O)N[C@@H](CCCCN)C(=O)NCC(=O)N[C@@H](CCC(N)=O)C(=O)O)[C@@H](C)O` [CAS_52906-92-0] returned a Ki of 0.00525 µM.

In the case of `CC[C@H]1OC(=O)[C@H](C)[C@@H](O[C@H]2C[C@@](C)(OC)[C@@H](O)[C@H](C)O2)[C@H](C)[C@@H](O[C@@H]2O[C@H](C)C[C@H](N(C)C)[C@H]2O)[C@@]2(C)CC(C)=C(O2)[C@H](C)[C@@H](O)[C@]1(C)O` [Erythromycin-A enol ether], the Ki is 0.0191 µM and 0.0479 µM.
